{
  "source": "patent US4540700A",
  "about": "“Treatment of diabetic complications with certain spiro-imidazolidine-diones” (Alcon Laboratories, Inc., priority 1984, dated 1985)",
  "key": {"Rat Aldose Reductase": {"target": "Rat Aldose Reductase (Rattus norvegicus, UniProt P07943)", "assay": "Rat Aldose Reductase Inhibition", "format": "biochemical", "excerpt": "Biophysical Chemistry, 8 (1978) 81-85; P. F. Kador, L. O. Merola and J. H\nKinoshita Documenta Ophthamologica, 18 (1979) 117."}, "[1]": {"test_system": "cataract formation in galactocemic rats", "assay": "in vivo dose response by intubation (per oral) in galactocemic rats, cataract (vacuole) formation", "design": "species or system Charles River CD (Sprague-Dawley derived) male rats", "procedure": "B. In vivo dose response studies were conducted to test the in vivo activity of the following compounds by intubation (per oral) in galactocemic rats on a 30% galactose diet previously described:\nStock suspensions of the test compounds and all dilutions of the compound were formulated with 0.03% by weight Tween 80.\nHealthy, Charles River CD (outbred albino, Sprague-Dawley derived) male rats, aged 20-30 days, without observable ocular defects and ranging in weight from 35-45 grams, were acclimated to experimental conditions (in quarantine) for two days prior to beginning the study.\nRats were individually assigned to one of twenty-three groups according to a random number schedule. Two rats, belonging to the same drug-diet treatment group, were housed per cage. Treatment and control groups consisted of six (6) rats each with no replacement in the event of death, and were designated as follows:\nLenses of all eyes were examined with a hand-held ophthalmoscope in the early stages of cataract development and a penlight for the stages, snowflake-like, snowflake, and nuclear cataract. Lens grading occurred every day for the first ten study days, and then every other day until study Day 14.\nThe relative potency determination was made at 7 drug levels over half log dose intervals. The response (percent cataracts formed and/or the time to cataract formation) was plotted against mg/kg and/or moles/kg.\nThe study was directed to the suppression and/or elimination of the initial stages of cataract development characterized by vacuoles or snowflake-likeopacities only. It was assumed therefore that suppression and/or elimination of vacuoles or lens opacification by the test drugs affects the transport, absorption and/or metabolism of galactose in such a manner as to prevent subsequent osmotic disturbances normally leading to tissue degeneration and advanced cataract. Advanced cataract defined as stages 2-4 of the Sipple classification was assumed to be of secondary importance to the etiology of cataract inhibition.\nIn the event where cataract stage other than vacuole formed, such as snowflake-like opacities, this cataract was counted similarly as vacuole in percent cataract formation.\nThis study yielded this expected effect in the control groups.\nAll animals were fed Purina Laboratory Chow and water, ad libitum, for the two day acclimation period. All drugs were dosed orally by intubation using an animal feeding needle (Popper and Sons), 18 or 20 gauge, attached to a 1 or 3 ml syringe. Once the dosing time schedule was established, the schedule was followed throughout the study to compensate for any diurnal variation.\nThe animals were kept on a twelve hour day/night cycle. The temperature and humidity were determined each day at the scheduled dosing time of 1:00 p.m.\nThe animals were weighed every other day and adjustments to dosage amounts to compensate for weight gain were made each day prior to the dose time. All food was routinely withheld from all animal groups for four hours (9:00 a.m.) prior to the drug dose and restored two hours (3:00 p.m.) post-dose. Otherwise sufficient amounts of chow or diet mixture were maintained in the food hopper to allow the animals to eat ad libitum. There were two days of drug dosage with the animals remaining on Purina Laboratory Chow (Days 1 and 2). The 30% galactose diet mixture was introduced to the animals two hours post-dose on Day 3 which constituted Day 1 of the study.\nAll eyes were examined with a hand-held ophthalmoscope and/or penlight at the times designated in the Experimental Design section.\nIt has been found in previous studies that dilation of the eye with a mydriactic (i.e. Mydriacyl) is not necessary for accurate grading, due to the semi-transparent nature of the rat iris. In the early stages (i.e., grades -, ±, and +) the lens was observed by reflecting the ophthalmoscope beam off the retina back through the lens and iris. Using this technique, vacuoles appear as dark, almost opaque patches. […]"}},
  "data": [
    {"smiles": "O=C1NC(=O)C2(N1)c1cc(F)ccc1-c1ccc(F)cc12", "note": "[M, Spiro-[2,7-difluorofluoren-9,4'-imidazolidine]-2',5'-dione]", "values": [
      {"measurement": "IC50", "setting": "Rat Aldose Reductase", "value": 0.044, "unit": "µM"},
      {"measurement": "Percent of Rat Eyes With at Least Vacuoles Formed", "setting": "[1]; 0.126 mg/kg p.o., Day 0", "value": 0, "unit": "%"},
      {"measurement": "Percent of Rat Eyes With at Least Vacuoles Formed", "setting": "[1]; 0.126 mg/kg p.o., Day 1", "value": 0, "unit": "%"},
      {"measurement": "Percent of Rat Eyes With at Least Vacuoles Formed", "setting": "[1]; 0.126 mg/kg p.o., Day 2", "value": 0, "unit": "%"},
      {"measurement": "Percent of Rat Eyes With at Least Vacuoles Formed", "setting": "[1]; 0.126 mg/kg p.o., Day 3", "value": 0, "unit": "%"},
      {"measurement": "Percent of Rat Eyes With at Least Vacuoles Formed", "setting": "[1]; 0.126 mg/kg p.o., Day 4", "value": 0, "unit": "%"},
      {"measurement": "Percent of Rat Eyes With at Least Vacuoles Formed", "setting": "[1]; 0.126 mg/kg p.o., Day 5", "value": 0, "unit": "%"},
      {"measurement": "Percent of Rat Eyes With at Least Vacuoles Formed", "setting": "[1]; 0.126 mg/kg p.o., Day 6", "value": 8, "unit": "%"},
      {"measurement": "Percent of Rat Eyes With at Least Vacuoles Formed", "setting": "[1]; 0.126 mg/kg p.o., Day 7", "value": 25, "unit": "%"},
      {"measurement": "Percent of Rat Eyes With at Least Vacuoles Formed", "setting": "[1]; 0.126 mg/kg p.o., Day 8", "value": 67, "unit": "%"},
      {"measurement": "Percent of Rat Eyes With at Least Vacuoles Formed", "setting": "[1]; 0.126 mg/kg p.o., Day 9", "value": 67, "unit": "%"},
      {"measurement": "Percent of Rat Eyes With at Least Vacuoles Formed", "setting": "[1]; 0.126 mg/kg p.o., Day 10", "value": 67, "unit": "%"},
      {"measurement": "Percent of Rat Eyes With at Least Vacuoles Formed", "setting": "[1]; 0.126 mg/kg p.o., Day 12", "value": 67, "unit": "%"},
      {"measurement": "Percent of Rat Eyes With at Least Vacuoles Formed", "setting": "[1]; 0.126 mg/kg p.o., Day 14", "value": 75, "unit": "%"},
      {"measurement": "Percent of Rat Eyes With at Least Vacuoles Formed", "setting": "[1]; 0.4 mg/kg p.o., Day 0", "value": 0, "unit": "%"},
      {"measurement": "Percent of Rat Eyes With at Least Vacuoles Formed", "setting": "[1]; 0.4 mg/kg p.o., Day 1", "value": 0, "unit": "%"},
      {"measurement": "Percent of Rat Eyes With at Least Vacuoles Formed", "setting": "[1]; 0.4 mg/kg p.o., Day 2", "value": 0, "unit": "%"},
      {"measurement": "Percent of Rat Eyes With at Least Vacuoles Formed", "setting": "[1]; 0.4 mg/kg p.o., Day 3", "value": 0, "unit": "%"},
      {"measurement": "Percent of Rat Eyes With at Least Vacuoles Formed", "setting": "[1]; 0.4 mg/kg p.o., Day 4", "value": 0, "unit": "%"},
      {"measurement": "Percent of Rat Eyes With at Least Vacuoles Formed", "setting": "[1]; 0.4 mg/kg p.o., Day 5", "value": 0, "unit": "%"},
      {"measurement": "Percent of Rat Eyes With at Least Vacuoles Formed", "setting": "[1]; 0.4 mg/kg p.o., Day 6", "value": 0, "unit": "%"},
      {"measurement": "Percent of Rat Eyes With at Least Vacuoles Formed", "setting": "[1]; 0.4 mg/kg p.o., Day 7", "value": 0, "unit": "%"},
      {"measurement": "Percent of Rat Eyes With at Least Vacuoles Formed", "setting": "[1]; 0.4 mg/kg p.o., Day 8", "value": 0, "unit": "%"},
      {"measurement": "Percent of Rat Eyes With at Least Vacuoles Formed", "setting": "[1]; 0.4 mg/kg p.o., Day 9", "value": 0, "unit": "%"},
      {"measurement": "Percent of Rat Eyes With at Least Vacuoles Formed", "setting": "[1]; 0.4 mg/kg p.o., Day 10", "value": 0, "unit": "%"},
      {"measurement": "Percent of Rat Eyes With at Least Vacuoles Formed", "setting": "[1]; 0.4 mg/kg p.o., Day 12", "value": 0, "unit": "%"},
      {"measurement": "Percent of Rat Eyes With at Least Vacuoles Formed", "setting": "[1]; 0.4 mg/kg p.o., Day 14", "value": 0, "unit": "%"},
      {"measurement": "Percent of Rat Eyes With at Least Vacuoles Formed", "setting": "[1]; 1.26 mg/kg p.o., Day 0", "value": 0, "unit": "%"},
      {"measurement": "Percent of Rat Eyes With at Least Vacuoles Formed", "setting": "[1]; 1.26 mg/kg p.o., Day 1", "value": 0, "unit": "%"},
      {"measurement": "Percent of Rat Eyes With at Least Vacuoles Formed", "setting": "[1]; 1.26 mg/kg p.o., Day 2", "value": 0, "unit": "%"},
      {"measurement": "Percent of Rat Eyes With at Least Vacuoles Formed", "setting": "[1]; 1.26 mg/kg p.o., Day 3", "value": 0, "unit": "%"},
      {"measurement": "Percent of Rat Eyes With at Least Vacuoles Formed", "setting": "[1]; 1.26 mg/kg p.o., Day 4", "value": 0, "unit": "%"},
      {"measurement": "Percent of Rat Eyes With at Least Vacuoles Formed", "setting": "[1]; 1.26 mg/kg p.o., Day 5", "value": 0, "unit": "%"},
      {"measurement": "Percent of Rat Eyes With at Least Vacuoles Formed", "setting": "[1]; 1.26 mg/kg p.o., Day 6", "value": 0.0, "unit": "%"},
      {"measurement": "Percent of Rat Eyes With at Least Vacuoles Formed", "setting": "[1]; 1.26 mg/kg p.o., Day 6, listed as 2,7-difluoro", "value": 0, "unit": "%"},
      {"measurement": "Percent of Rat Eyes With at Least Vacuoles Formed", "setting": "[1]; 1.26 mg/kg p.o., Day 7", "value": 0, "unit": "%"},
      {"measurement": "Percent of Rat Eyes With at Least Vacuoles Formed", "setting": "[1]; 1.26 mg/kg p.o., Day 8", "value": 0, "unit": "%"},
      {"measurement": "Percent of Rat Eyes With at Least Vacuoles Formed", "setting": "[1]; 1.26 mg/kg p.o., Day 9", "value": 0, "unit": "%"},
      {"measurement": "Percent of Rat Eyes With at Least Vacuoles Formed", "setting": "[1]; 1.26 mg/kg p.o., Day 10", "value": 0, "unit": "%"},
      {"measurement": "Percent of Rat Eyes With at Least Vacuoles Formed", "setting": "[1]; 1.26 mg/kg p.o., Day 12", "value": 0, "unit": "%"},
      {"measurement": "Percent of Rat Eyes With at Least Vacuoles Formed", "setting": "[1]; 1.26 mg/kg p.o., Day 14", "value": 0, "unit": "%"},
      {"measurement": "Percent of Rat Eyes With at Least Vacuoles Formed", "setting": "[1]; 4.0 mg/kg p.o., Day 0", "value": 0, "unit": "%"},
      {"measurement": "Percent of Rat Eyes With at Least Vacuoles Formed", "setting": "[1]; 4.0 mg/kg p.o., Day 1", "value": 0, "unit": "%"},
      {"measurement": "Percent of Rat Eyes With at Least Vacuoles Formed", "setting": "[1]; 4.0 mg/kg p.o., Day 2", "value": 0, "unit": "%"},
      {"measurement": "Percent of Rat Eyes With at Least Vacuoles Formed", "setting": "[1]; 4.0 mg/kg p.o., Day 3", "value": 0, "unit": "%"},
      {"measurement": "Percent of Rat Eyes With at Least Vacuoles Formed", "setting": "[1]; 4.0 mg/kg p.o., Day 4", "value": 0, "unit": "%"},
      {"measurement": "Percent of Rat Eyes With at Least Vacuoles Formed", "setting": "[1]; 4.0 mg/kg p.o., Day 5", "value": 0, "unit": "%"},
      {"measurement": "Percent of Rat Eyes With at Least Vacuoles Formed", "setting": "[1]; 4.0 mg/kg p.o., Day 6", "value": 0.0, "unit": "%"},
      {"measurement": "Percent of Rat Eyes With at Least Vacuoles Formed", "setting": "[1]; 4.0 mg/kg p.o., Day 6, listed as 2,7-difluoro", "value": 0, "unit": "%"},
      {"measurement": "Percent of Rat Eyes With at Least Vacuoles Formed", "setting": "[1]; 4.0 mg/kg p.o., Day 7", "value": 0.0, "unit": "%"},
      {"measurement": "Percent of Rat Eyes With at Least Vacuoles Formed", "setting": "[1]; 4.0 mg/kg p.o., Day 7, listed as 2,7-difluoro", "value": 0, "unit": "%"},
      {"measurement": "Percent of Rat Eyes With at Least Vacuoles Formed", "setting": "[1]; 4.0 mg/kg p.o., Day 8", "value": 0.0, "unit": "%"},
      {"measurement": "Percent of Rat Eyes With at Least Vacuoles Formed", "setting": "[1]; 4.0 mg/kg p.o., Day 8, listed as 2,7-difluoro", "value": 0, "unit": "%"}
    ]}
  ]
}
